# Activity calls are given as the source filed them.
# Experiments:
# [1] = target: T1, Fatty-acid amide hydrolase 1 (Mus musculus, UniProt O08914); assay: Inhibition of mouse FAAH isolated from brain homogenate using [3H-ethanolamine]AEA as substrate incubated for 20 mins prior to substrate addition measured after 15 mins by beta counting analysis
# T1 sequence (O08914 whole entry): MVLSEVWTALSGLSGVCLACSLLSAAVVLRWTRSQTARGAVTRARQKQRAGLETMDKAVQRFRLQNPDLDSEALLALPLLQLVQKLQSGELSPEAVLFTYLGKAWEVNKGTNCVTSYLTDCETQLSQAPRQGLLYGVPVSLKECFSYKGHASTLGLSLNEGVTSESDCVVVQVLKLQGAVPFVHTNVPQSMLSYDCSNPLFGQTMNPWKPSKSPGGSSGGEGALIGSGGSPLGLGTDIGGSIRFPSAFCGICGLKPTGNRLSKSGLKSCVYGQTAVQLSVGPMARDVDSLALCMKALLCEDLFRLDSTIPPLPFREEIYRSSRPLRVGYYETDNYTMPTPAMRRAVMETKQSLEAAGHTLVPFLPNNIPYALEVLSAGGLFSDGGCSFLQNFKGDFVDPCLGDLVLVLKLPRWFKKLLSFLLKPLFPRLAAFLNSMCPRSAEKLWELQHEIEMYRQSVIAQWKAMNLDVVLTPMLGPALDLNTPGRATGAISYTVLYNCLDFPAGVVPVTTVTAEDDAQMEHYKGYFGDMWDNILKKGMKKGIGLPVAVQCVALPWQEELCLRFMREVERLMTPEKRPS
# [2] = target: T2, Fatty-acid amide hydrolase 1 (Mus musculus) (UniProt O08914); assay: Reversible inhibition of mouse FAAH isolated from brain homogenate using [3H-ethanolamine]AEA as substrate incubated for 20 mins prior to substrate addition measured after 18 hrs by […] method
# T2 sequence (whole entry): T1 sequence (O08914 whole entry)
# [3] = target: T3, Fatty-acid amide hydrolase 1 (Homo sapiens, UniProt O00519); assay: Inhibition of human recombinant FAAH
# T3 sequence (O00519 whole entry): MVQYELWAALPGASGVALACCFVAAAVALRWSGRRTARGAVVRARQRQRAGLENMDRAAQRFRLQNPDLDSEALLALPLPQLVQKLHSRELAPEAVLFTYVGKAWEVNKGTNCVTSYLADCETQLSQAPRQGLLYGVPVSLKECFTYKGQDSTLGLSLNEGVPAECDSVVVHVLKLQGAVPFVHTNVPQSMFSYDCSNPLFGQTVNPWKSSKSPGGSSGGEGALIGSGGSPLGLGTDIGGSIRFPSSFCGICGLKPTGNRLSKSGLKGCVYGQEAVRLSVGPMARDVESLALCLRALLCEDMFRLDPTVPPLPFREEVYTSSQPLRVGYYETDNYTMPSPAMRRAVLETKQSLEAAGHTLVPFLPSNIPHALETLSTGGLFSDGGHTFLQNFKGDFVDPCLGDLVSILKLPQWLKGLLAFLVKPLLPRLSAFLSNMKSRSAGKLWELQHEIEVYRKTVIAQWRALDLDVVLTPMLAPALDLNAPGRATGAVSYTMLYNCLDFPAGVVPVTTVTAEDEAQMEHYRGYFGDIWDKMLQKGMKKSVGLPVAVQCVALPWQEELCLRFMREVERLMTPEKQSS
# [4] = target: T4, N-acyl-phosphatidylethanolamine-hydrolyzing phospholipase D (Mus musculus) (UniProt Q8BH82); assay: Inhibition of NAPE-PLD-meidated AEA synthesis in mouse brain homogenate using [3H]NArPE as substrate incubated for 20 mins prior to substrate addition; format: tissue-based
# T4 sequence (whole entry): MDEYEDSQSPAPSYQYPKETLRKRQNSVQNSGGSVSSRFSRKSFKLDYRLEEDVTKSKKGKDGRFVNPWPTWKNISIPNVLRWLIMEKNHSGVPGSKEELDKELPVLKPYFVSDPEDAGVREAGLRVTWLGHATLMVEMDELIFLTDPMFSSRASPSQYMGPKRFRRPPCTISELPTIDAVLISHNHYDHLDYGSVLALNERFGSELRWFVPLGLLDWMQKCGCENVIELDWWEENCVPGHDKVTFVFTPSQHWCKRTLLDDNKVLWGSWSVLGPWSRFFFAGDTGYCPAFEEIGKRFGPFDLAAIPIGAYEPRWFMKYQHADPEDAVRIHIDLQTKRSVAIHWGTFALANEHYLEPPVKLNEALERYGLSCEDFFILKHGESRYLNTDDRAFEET
# Rattus norvegicus [5] = assay: Analgesic activity in rat assessed as increase in paw withdrawal threshold at 30 mg/kg, po; format: functional, organism-based; design: dose 30 mg/kg
# Mus musculus [6] = assay: Toxicity against CD1 mouse assessed as limbic/striatal stereotypies at 10 mg/kg, po at 240 mins by Irwin test; format: organism-based; design: dose 10 mg/kg, route oral; settings: in vivo, 4 h
# [7] = target: Cannabinoid receptor 2 (Mus musculus) (UniProt P47936); assay: Displacement of [3H]CP55.940 from CB2 receptor in mouse spleen fraction; format: tissue-based
# Mus musculus [8] = assay: Toxicity against CD1 mouse assessed as limbic/striatal stereotypies at 30 mg/kg, po at 60 mins by Irwin test; format: organism-based; design: dose 30 mg/kg, route oral; settings: in vivo, 1 h
# [9] = target: T5, Monoglyceride lipase (Mus musculus) (UniProt O35678); assay: Inhibition of MAGL-mediated 2AG hydrolysis in mouse brain homogenate using [3H]2OG as substrate incubated for 20 mins prior to substrate addition; format: tissue-based
# T5 sequence (whole entry): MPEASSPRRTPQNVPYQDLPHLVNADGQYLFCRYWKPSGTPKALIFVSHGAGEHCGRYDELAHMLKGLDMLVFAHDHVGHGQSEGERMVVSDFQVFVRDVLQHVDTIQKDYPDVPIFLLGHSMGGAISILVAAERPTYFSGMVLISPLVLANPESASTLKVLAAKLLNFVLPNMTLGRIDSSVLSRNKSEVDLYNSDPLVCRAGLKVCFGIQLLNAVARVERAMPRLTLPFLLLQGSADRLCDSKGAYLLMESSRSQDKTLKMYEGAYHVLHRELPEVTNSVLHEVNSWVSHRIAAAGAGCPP
# Mus musculus [10] = species: Mus musculus; assay: Inhibition of DAGL-mediated 2AG synthesis in mouse brain homogenate using […] as substrate incubated for 20 mins prior to substrate addition; format: tissue-based
# Mus musculus [11] = assay: Toxicity against CD1 mouse assessed as limbic/striatal stereotypies at 10 mg/kg, po at 60 mins by Irwin test; format: organism-based; design: dose 10 mg/kg, route oral; settings: in vivo, 1 h
# Mus musculus [12] = assay: Anxiolytic activity in mouse at 10 mg/kg, po measured for 5 mins by elevated plus maze test; format: organism-based; design: dose 10 mg/kg, route oral; settings: in vivo
# Mus musculus [13] = assay: Anxiolytic activity in mouse at 30 mg/kg, po measured for 5 mins by elevated plus maze test; format: organism-based; design: dose 30 mg/kg, route oral; settings: in vivo
# Mus musculus [14] = assay: Anxiolytic activity in mouse at 3 mg/kg, po measured for 5 mins by elevated plus maze test; format: organism-based; design: dose 3 mg/kg, route oral; settings: in vivo
# Mus musculus [15] = assay: Toxicity against CD1 mouse assessed as limbic/striatal stereotypies at 100 mg/kg, po at 240 mins by Irwin test; format: organism-based; design: dose 100 mg/kg, route oral; settings: in vivo, 4 h
# Rattus norvegicus [16] = assay: Analgesic activity in rat assessed as increase in paw withdrawal threshold at 10 mg/kg, po; format: functional, organism-based; design: dose 10 mg/kg
# Mus musculus [17] = assay: Toxicity against CD1 mouse assessed as limbic/striatal stereotypies at 30 mg/kg, po at 240 mins by Irwin test; format: organism-based; design: dose 30 mg/kg, route oral; settings: in vivo, 4 h
# Mus musculus [18] = assay: Toxicity against CD1 mouse assessed as limbic/striatal stereotypies at 100 mg/kg, po at 60 mins by Irwin test; format: organism-based; design: dose 100 mg/kg, route oral; settings: in vivo, 1 h
# Rattus norvegicus [19] = assay: Analgesic activity in rat assessed as increase in paw withdrawal threshold at 100 mg/kg, po; format: functional, organism-based; design: dose 100 mg/kg
# [20] = target: Transient receptor potential cation channel subfamily V member 1 (Mus musculus) (UniProt Q704Y3); assay: Displacement of [3H]RTX from TRPV1 receptor in mouse brain fraction; format: tissue-based
# [21] = target: Cannabinoid receptor 1 (Mus musculus) (UniProt P47746); assay: Displacement of [3H]CP55.940 from CB1 receptor in mouse brain fraction; format: tissue-based
# Chain of Cannabinoid receptor 1 (Mus musculus) (P47746 whole entry): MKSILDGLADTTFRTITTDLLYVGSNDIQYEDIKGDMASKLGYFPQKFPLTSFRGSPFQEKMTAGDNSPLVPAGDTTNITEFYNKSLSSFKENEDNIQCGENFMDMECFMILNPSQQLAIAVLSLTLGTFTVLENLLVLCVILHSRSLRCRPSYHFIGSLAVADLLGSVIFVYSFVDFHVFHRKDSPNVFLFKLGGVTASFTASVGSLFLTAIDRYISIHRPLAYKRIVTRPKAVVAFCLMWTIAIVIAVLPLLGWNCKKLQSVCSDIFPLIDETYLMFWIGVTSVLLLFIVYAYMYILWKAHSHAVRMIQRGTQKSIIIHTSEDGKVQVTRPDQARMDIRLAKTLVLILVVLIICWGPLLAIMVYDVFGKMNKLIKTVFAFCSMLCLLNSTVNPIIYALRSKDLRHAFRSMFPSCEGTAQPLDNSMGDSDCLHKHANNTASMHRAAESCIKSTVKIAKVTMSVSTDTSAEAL
# Chain of Transient receptor potential cation channel subfamily V member 1 (Mus musculus) (Q704Y3 whole entry): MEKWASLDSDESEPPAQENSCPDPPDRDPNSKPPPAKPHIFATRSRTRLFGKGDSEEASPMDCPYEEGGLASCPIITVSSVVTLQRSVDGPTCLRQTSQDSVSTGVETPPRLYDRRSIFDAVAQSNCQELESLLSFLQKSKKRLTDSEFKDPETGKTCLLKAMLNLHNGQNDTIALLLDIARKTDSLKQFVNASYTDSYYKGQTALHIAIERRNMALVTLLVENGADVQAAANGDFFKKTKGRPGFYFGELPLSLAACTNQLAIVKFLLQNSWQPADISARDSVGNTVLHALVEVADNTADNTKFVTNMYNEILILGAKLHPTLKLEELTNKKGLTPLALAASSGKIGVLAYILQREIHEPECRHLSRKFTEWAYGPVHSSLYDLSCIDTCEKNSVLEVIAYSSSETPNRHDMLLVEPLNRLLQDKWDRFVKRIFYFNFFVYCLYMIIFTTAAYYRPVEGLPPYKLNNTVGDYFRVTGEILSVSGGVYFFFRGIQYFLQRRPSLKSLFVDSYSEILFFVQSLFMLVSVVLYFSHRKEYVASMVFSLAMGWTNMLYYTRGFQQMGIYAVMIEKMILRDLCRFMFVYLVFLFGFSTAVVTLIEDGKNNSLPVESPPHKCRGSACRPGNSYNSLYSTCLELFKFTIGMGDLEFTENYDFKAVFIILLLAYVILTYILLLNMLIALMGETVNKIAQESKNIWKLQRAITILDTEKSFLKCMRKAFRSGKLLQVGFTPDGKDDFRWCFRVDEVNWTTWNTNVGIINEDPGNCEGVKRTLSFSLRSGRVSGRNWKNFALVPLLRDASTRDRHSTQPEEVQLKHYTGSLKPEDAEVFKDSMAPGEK
# Chain of Cannabinoid receptor 2 (Mus musculus) (P47936 whole entry): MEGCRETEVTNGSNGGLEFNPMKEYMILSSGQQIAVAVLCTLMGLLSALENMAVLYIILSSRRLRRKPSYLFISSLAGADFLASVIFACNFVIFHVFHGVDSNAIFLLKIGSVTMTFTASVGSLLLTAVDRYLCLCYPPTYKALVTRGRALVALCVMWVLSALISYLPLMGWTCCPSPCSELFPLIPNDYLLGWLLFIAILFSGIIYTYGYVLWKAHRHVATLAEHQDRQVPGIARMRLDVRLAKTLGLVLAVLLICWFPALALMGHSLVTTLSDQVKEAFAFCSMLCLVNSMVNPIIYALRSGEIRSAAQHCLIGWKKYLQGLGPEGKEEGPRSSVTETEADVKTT
structure (smiles),measurement,setting,value
NC(=O)c1ccn(-c2cccc(OC(=O)NCCOCCOc3ccc(F)cc3F)c2)c1,IC50,[1],0.028 µM
same,Ki,[1],0.007 µM
same,inhibition,[2],Active
NC(=O)c1cccc(-c2cccc(OC(=O)NCCCCCCc3ccccc3)c2)c1,IC50,[3],0.036 µM
same,IC50,[1],0.014 µM
C#CCCCCCCCCCOC(=O)c1ccn(-c2cccc(OC(=O)NC3CCCCC3)c2)c1,IC50,[1],> 10 µM
C#CCCCCCCCCCOC(=O)c1ccn(-c2cccc(OC(=O)NCCCCCCc3ccccc3)c2)c1,IC50,[1],> 0.2 µM
O=C(CCCCCCc1ccccc1)c1ncc(-c2ccccn2)o1,inhibition,[2],Active
Cc1cc(C(N)=O)c(-c2cccc(OC(=O)NC3CCCCC3)c2)s1,IC50,[1],> 0.2 µM
C#CCCCCCCCCCNC(=O)Oc1cccc(-n2ccc(C(N)=O)c2)c1,inhibition,[4],inactive
same,Activity,Rattus norvegicus [5],Active
same,Activity,Mus musculus [6],Non-toxic
same,Activity,[7],inactive
same,Activity,Mus musculus [8],Toxic
same,inhibition,[9],inactive
same,inhibition,Mus musculus [10],inactive
same,Activity,Mus musculus [11],Toxic
same,Activity,Mus musculus [12],Non-toxic
same,Activity,Mus musculus [13],Non-toxic
same,Activity,Mus musculus [14],Non-toxic
same,Activity,Mus musculus [15],Non-toxic
same,Activity,Rattus norvegicus [16],inactive
same,Activity,Mus musculus [17],Non-toxic
same,Activity,Mus musculus [18],Toxic
same,IC50,[1],0.00067 µM
same,Ki,[1],0.00018 µM
same,Activity,Rattus norvegicus [19],Active
same,Activity,[20],inactive
same,Activity,[21],inactive
Cc1oc(-c2cccc(OC(=O)NCCCCCCc3ccccc3)c2)cc1C(N)=O,IC50,[1],0.018 µM
same,Ki,[1],0.0048 µM
COc1cccc(-c2c(C(=O)NCCCCCc3ccccc3)cc(C)n2Cc2ccccc2)c1,IC50,[1],> 50 µM
Cc1cc(C(=O)NCCCCCCc2ccccc2)c(-c2cccc(OC(=O)NC3CCCCC3)c2)n1Cc1ccccc1,IC50,[1],> 0.2 µM
NC(=O)c1ccn(-c2cccc(OC(=O)NC3CCCCC3)c2)c1,IC50,[1],0.12 µM
same,Ki,[1],0.032 µM
CCCCNC(=O)Oc1cccc(-n2ccc(C(N)=O)c2)c1,IC50,[1],0.24 µM
same,Ki,[1],0.06 µM
C#CCCCCCCCCCOC(=O)c1ccn(-c2cccc(OC(=O)NCCCC)c2)c1,IC50,[1],> 0.07 µM
CCCCNC(=O)Oc1cccc(-c2cc(C(N)=O)c(C)o2)c1,IC50,[1],> 0.2 µM

# Source: ChEMBL document CHEMBL2163339, “Discovery of potent inhibitors of human and mouse fatty acid amide hydrolases” (J Med Chem, 2012)
